# Measured values published in patent US20090088439A1, “Diazinane Compounds” (priority 2007, published 2009).
# Target: T1, GABAB(1A,2) receptor heterodimer (Homo sapiens, UniProt O75899+Q9UBS5)
# T1 construct: expressed in transfected cells; membrane preparation
# Test: GTPγS35 radioligand filtration-binding assay for determination of PAM potency
# Assay type: biochemical
# Conditions: membranes of CHO-K1 cells expressing GABABR1a/GABABR2; concentration required to reduce GABA's EC50 by 50%; PAM at 10, 1, 0.1 and 0.01 μM; read-out: Mean (EC50 derived) PAM EC50
# Source text: The effect of GABA in an automated GTPγS^35 radioligand filtration-binding assay in CHO cells expressing the GABAB(1A,2) receptor heterodimer was studied in the presence or absence of the positive allosteric modulator test compounds. […]
# (§1) The GABAB receptor is a G-protein coupled receptor. Binding of a ligand activates the receptor leading to recruitment of G-protein and a substitution of the G-protein bound GDP to GTP. The G-protein becomes active. The G-protein is inactivated by hydrolysis of GTP to GDP. G-proteins are membrane bound and therefore present in membrane preparations.
# (§2) In the GTPγS^35 assay, GTP is not present but instead GTPγS^35 where one of the phosphate groups are substituted to a sulphur group which cannot be hydrolysed. Upon activation of the receptor, radiolabelled GTPγS^35 replaces the GDP. The complex cannot be inactivated and the radiolabelled complex is accumulating. At the end of the assay, the reaction mixture is filtered through a membrane-binding filter. Excess GTPγS^35 is removed by washing and the membrane bound S^35, which correlates to the degree of receptor activation, is measured with a β-Liquid Scintillation Counter.
# GABABR1a and GABABR2 were cloned from human brain cDNA and subcloned into pCI-Neo (Promega) and pALTER-1 (Promega), respectively.
# In order to optimise the Kozak consensus sequence of GABABR2, in situ mutagenesis was performed using the Altered Sites Mutagenesis kit according to manufacturer's instruction (Promega) with the following primer,
# 5′-[…]-3′. The optimised GABABR2 was then restricted from pALTER-1 with Xho I+Kpn I and subcloned into the mammalian expression vector pcDNA3.1(−)/Zeo (Invitrogen) to produce the final construct, pcDNA3.1(−)/Zeo-GABABR2.
# For generation of stable cell lines, CHO-K1 cells were grown in Nut mix F-12 (Ham) media supplemented with 10% FBS, 100 U/ml Penicillin and 100 μg/ml Streptomycin at 37° C. in a humidified CO2-incubator. The cells were detached with 1 mM EDTA in PBS and 1 million cells were seeded in 100 mm petri dishes. After 24 hours the culture media was replaced with OptiMEM and incubated for 1 hour in a CO2-incubator.
# For generation of a cell line expressing the GABABR1a/GABABR2 heterodimer, GABABR1a plasmid DNA (4 μg) GABABR2 plasmid DNA (4 μg) and lipofectamine (24 μl) were mixed in 5 ml OptiMEM and incubated for 45 minutes at room temperature. The cells were exposed to the transfection medium for 5 hours, which then was replaced with culture medium. The cells were cultured for an additional 10 days before selection agents (300 μg/ml hygromycin and 400 μg/ml geneticin) were added. Twenty-four days after transfection, single cell sorting into 96-well plates by flow cytometry was performed using a FACS Vantage SE (Becton Dickinson, Palo Alto, Calif.). After expansion, the GABAB receptor functional response was tested by measuring the GABAB receptor dependent release of intracellular calcium in a fluorescence imaging plate reader (FLIPR). The clone with the highest functional response was collected, expanded and then subcloned by single cell sorting. The clonal cell line with the highest peak response in the FLIPR was used in the present study.
# GTPγS^35 radioligand filtration-binding assays were performed using an automated workstation at 30° C. for 1 hour in assay buffer (50 mM HEPES, 40 mM NaCl, 1 mM MgCl2×6H2O, 30 μg/mL Saponin, pH 7.4 at RT) containing 0.025 μg/μL of membrane protein (prepared from the cell line described above), 10 μM GDP and 0.55 nCi/μL GTPγS^35 in a final volume of 60 μL. The reaction was started by the addition of serially diluted GABA (final start concentration 1 mM dilution factor 3) in the presence or absence of four concentrations (final conc 10, 1, 0.1 and 0.01 μM) of PAM. The reaction was terminated and membranes collected by addition of ice-cold wash buffer (50 mM Tris-HCl, 5 mM MgCl2×6H2O, 50 mM NaCl, pH 7.4 at 4° C.) followed by rapid filtration under vacuum through a MultiScreen HTS 384 FB filter plate. […]
# T1 sequence (Q9UBS5 15-961 limits assumed): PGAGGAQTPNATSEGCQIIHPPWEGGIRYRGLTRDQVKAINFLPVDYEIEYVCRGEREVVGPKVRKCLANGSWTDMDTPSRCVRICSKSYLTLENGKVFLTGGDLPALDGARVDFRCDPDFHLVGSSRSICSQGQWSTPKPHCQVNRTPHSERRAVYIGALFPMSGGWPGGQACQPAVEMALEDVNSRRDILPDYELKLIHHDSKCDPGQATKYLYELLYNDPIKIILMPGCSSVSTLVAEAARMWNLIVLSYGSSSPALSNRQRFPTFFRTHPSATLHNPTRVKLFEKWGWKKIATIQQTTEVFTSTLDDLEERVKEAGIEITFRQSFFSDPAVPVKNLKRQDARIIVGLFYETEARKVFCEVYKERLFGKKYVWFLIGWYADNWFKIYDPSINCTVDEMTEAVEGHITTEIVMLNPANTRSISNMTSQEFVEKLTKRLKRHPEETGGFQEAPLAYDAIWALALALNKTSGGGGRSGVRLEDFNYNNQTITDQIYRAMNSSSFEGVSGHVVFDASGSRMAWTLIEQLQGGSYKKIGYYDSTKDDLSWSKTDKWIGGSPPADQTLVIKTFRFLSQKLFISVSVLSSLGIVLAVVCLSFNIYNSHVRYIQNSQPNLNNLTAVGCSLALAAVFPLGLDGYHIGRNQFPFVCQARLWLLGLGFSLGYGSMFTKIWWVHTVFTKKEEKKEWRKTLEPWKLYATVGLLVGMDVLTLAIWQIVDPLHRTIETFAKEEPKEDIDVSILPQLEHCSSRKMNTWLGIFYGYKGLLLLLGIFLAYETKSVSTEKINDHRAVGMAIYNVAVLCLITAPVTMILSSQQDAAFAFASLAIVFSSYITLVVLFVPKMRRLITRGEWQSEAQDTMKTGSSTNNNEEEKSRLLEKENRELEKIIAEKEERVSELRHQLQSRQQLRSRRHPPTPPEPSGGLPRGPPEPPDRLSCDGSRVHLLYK
# T1 sequence (O75899 42-941): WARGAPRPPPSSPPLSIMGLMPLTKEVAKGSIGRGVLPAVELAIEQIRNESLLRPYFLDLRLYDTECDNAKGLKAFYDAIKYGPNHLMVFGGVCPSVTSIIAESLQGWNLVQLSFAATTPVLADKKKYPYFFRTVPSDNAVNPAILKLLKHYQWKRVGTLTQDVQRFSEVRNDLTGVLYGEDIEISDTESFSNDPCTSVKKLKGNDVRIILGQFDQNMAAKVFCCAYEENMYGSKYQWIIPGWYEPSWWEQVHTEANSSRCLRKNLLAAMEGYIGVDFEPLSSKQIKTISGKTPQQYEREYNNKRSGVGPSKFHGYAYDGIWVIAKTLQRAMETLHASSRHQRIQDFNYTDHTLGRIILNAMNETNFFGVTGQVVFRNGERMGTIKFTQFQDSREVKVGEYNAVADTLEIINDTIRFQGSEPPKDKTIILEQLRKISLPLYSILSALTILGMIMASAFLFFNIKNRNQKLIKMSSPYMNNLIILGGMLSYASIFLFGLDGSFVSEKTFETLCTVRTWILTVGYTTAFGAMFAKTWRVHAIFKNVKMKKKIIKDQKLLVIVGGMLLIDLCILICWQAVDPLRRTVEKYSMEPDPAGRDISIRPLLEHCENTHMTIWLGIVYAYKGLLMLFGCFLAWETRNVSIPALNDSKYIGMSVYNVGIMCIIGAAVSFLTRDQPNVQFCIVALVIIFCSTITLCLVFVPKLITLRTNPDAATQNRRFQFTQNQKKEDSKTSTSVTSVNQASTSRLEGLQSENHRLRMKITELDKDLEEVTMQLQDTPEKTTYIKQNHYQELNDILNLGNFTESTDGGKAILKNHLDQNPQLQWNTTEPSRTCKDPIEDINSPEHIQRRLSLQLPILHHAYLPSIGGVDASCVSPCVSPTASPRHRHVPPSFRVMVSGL
row,Molecule,EC50 [nM]
1,"O=c1c2nccnc2n(CC2CCCCC2)c(=O)n1Cc1ccc(Cl)cc1 [Example 4, 3-(4-chlorobenzyl)-1-(cyclohexylmethyl)pteridine-2,4(1H,3H)-dione]",600
2,"CC(C)(C)C(=O)Cn1c(=O)n(Cc2ccc(Cl)cc2)c(=O)c2nccnc21 [Example 5, 3-(4-chlorobenzyl)-1-(3,3-dimethyl-2-oxobutyl)pteridine-2,4(1H,3H)-dione]",2900
3,"C[Si](C)(C)CCn1c(=O)n(Cc2ccc(Cl)cc2)c(=O)c2nccnc21 [Example 3, 3-(4-chlorobenzyl)-1-[2-(trimethylsilyl)ethyl]pteridine-2,4(1H,3H)-dione]",600
4,"O=C(c1ccccc1)c1ccc(Cn2c(=O)n(Cc3ccc(Cl)cc3)c(=O)c3nccnc32)cc1 [Example 10, 1-(4-benzoylbenzyl)-3-(4-chlorobenzyl)pteridine-2,4(1H,3H)-dione]",800
5,"COc1ccc(Cn2c(=O)n(Cc3ccc(Cl)cc3)c(=O)c3nccnc32)c(OC)c1 [Example 1, 3-(4-chlorobenzyl)-1-(2,4-dimethoxybenzyl)pteridine-2,4(1H,3H)-dione]",6000
6,"CCCn1c(=O)n(Cc2ccc(Cl)cc2)c(=O)c2nccnc21 [Example 2, 3-(4-chlorobenzyl)-1-propylpteridine-2,4(1H,3H)-dione]",4300

# Second part, the molecule after the results:
row,EC50 [nM],Molecule
1,7000,"COc1ccc(Cn2c(=O)n(Cc3ccc(Cl)cc3)c(=O)c3nccnc32)cc1 [Example 9, 3-(4-chlorobenzyl)-1-(4-methoxybenzyl)pteridine-2,4(1H,3H)-dione]"
2,2400,"O=c1c2nccnc2n(Cc2ccc(Cl)cc2)c(=O)n1Cc1ccc(Cl)cc1 [Example 8, 1,3-bis(4-chlorobenzyl)pteridine-2,4(1H,3H)-dione]"
3,1300,"O=c1c2nccnc2n(CCc2ccccc2)c(=O)n1Cc1ccc(Cl)cc1 [Example 11, 3-(4-chlorobenzyl)-1-(2-phenylethyl)pteridine-2,4(1H,3H)-dione]"
4,5100,"O=c1c2nccnc2n(Cc2ccccc2)c(=O)n1Cc1ccc(Cl)cc1 [Example 7, 1-benzyl-3-(4-chlorobenzyl)pteridine-2,4(1H,3H)-dione]"

# Target: T2, GABABR1a/GABABR2 heterodimer (Homo sapiens, UniProt O75899+Q9UBS5)
# T2 construct: expressed in transfected cells; membrane preparation
# Test: GTPγS35 radioligand filtration-binding assay for determination of agonist potency
# Assay type: biochemical
# Conditions: membranes of CHO K1 Flp-In cells expressing GABABR1a/GABABR2; compound alone
# Description: The potency and efficacy of the compounds acting as agonists at the GABAB receptor was also determined in a automated GTPγS^35 radioligand filtration-binding assay.
# as §1, §2
# The human GABABR1a was subcloned into pIRESneo3 (Clontech) using GABABR1a construct as a template (refseqN NM001470). GABABR2 was subcloned into pCDNA5/FRT (Invitrogen) using GABABR2 construct as a template (refseqN NM005458). The Kozak sequence GCCACC was introduced before the start codon in both constructs.
# For generation of stable cell lines, CHO K1 Flp-In cells (Invitrogen) were grown in DMEM/F 12 1:1 media supplemented with 10% FBS at 37° C. in a humidified CO2-incubator. The cells were detached with Accutase and 1.5 million cells were seeded into T75 flasks. After 24 h, transfection of the cells were performed with the GABABR2 construct. For generation of cell lines expressing GABABR2, GABABR2 plasmid (1 μg) and pOG44 from Invitrogen (9 μg) were mixed with 30 μl Lipofectamine 2000 in 600 μl OptiMEM for 20 minutes. The cells were exposed to transfection medium for 5 hours and was then replaced with culture medium. After 2 days 0.5 mg/ml Hygromycin were added to culture medium. The cells were cultured for an additional 10 days to establish a stable cell mix expressing GABABR2. For generation of a cell line expressing the GABABR1a/GABABR2 heterodimer, GABABR1a plasmid DNA (8 μg) and Lipofectamine (30 μl) were mixed in 600 μl OptiMEM and incubated for 20 minutes before added to CHO-Flp-In cells expressing GABABR2. After 2 days additional selection agent was added (0.8 mg/ml Geneticin). The cells were cultured for another 10 days to generate a stable mixed population expressing the GABABR1a/GABABR2 heterodimer. The cell line was analyzed by GTPγS^35 assay with GABA as agonist.
# GTPγS^35 radioligand filtration-binding assays were performed using an automated workstation at 30° C. for 1 hour in assay buffer (50 mM HEPES, 40 mM NaCl, 1 mM MgCl2×6H2O, 30 μg/mL Saponin, pH 7.4 at RT) containing 0.025 μg/μL of membrane protein (prepared from the cell line described above), 10 μM GDP and 0.55 nCi/μL GTPγS^35 in a final volume of 60 μL. The reaction was started by the addition of compounds (GABA was always included as a positive control), start concentration 100 μM dilution factor 3. The reaction was terminated and membranes collected by addition of ice-cold wash buffer (50 mM Tris-HCl, 5 mM MgCl2×6H2O, 50 mM NaCl, pH 7.4 at 4° C.) followed by rapid filtration under vacuum through a MultiScreen HTS 384 FB filter plate. Repeated washing of the filters with ice-cold wash buffer washed the unbound radioligand away. The filter plates were dried for 1½-2 hours at 50° C., then 8 μL scintillation liquid was added per well followed by incubation at RT for at least 20 minutes before bound radioactivity was determined using a β-Liquid Scintillation Counter (1450 Microbeta Trilux, Wallac, Finland)
# 100% activation (max) is calculated as the mean value for wells containing 1 mM GABA. […]
# T2 sequence (Q9UBS5 15-961 limits assumed): as the sequence (Q9UBS5 15-961 limits assumed) above
# T2 sequence (O75899 42-941): as the sequence (O75899 42-941) above
row,Molecule,EC50 [nM]
1,"CCCn1c(=O)n(Cc2ccc(Cl)cc2)c(=O)c2nc(CC)c(CC)nc21 [Example 13, 3-(4-chlorobenzyl)-6,7-diethyl-1-propylpteridine-2,4(1H,3H)-dione]",800
2,"CCCn1c(=O)n(Cc2ccc(Cl)cc2)c(=O)c2nc3c(nc21)CCC3 [Example 22, 3-(4-chlorobenzyl)-1-propyl-7,8-dihydro-1H-cyclopenta[g]pteridine-2,4(3H,6H)-dione]",3700
3,"CCCn1c(=O)n(Cc2ccc(Cl)cc2)c(=O)c2c1nc1c([n+]2[O-])CCCC1 [Example 21, 3-(4-chlorobenzyl)-1-propyl-6,7,8,9-tetrahydrobenzo[g]pteridine-2,4(1H,3H)-dione 5-oxide]",7700
4,"O=c1c2nc3c(nc2n(CCn2cccc2)c(=O)n1Cc1ccc(Cl)cc1)CCCC3 [Example 17, 3-(4-chlorobenzyl)-1-[2-(1H-pyrrol-1-yl)ethyl]-6,7,8,9-tetrahydrobenzo[g]pteridine-2,4(1H,3H)-dione]",1600
5,"N#Cc1cccc(Cn2c(=O)n(Cc3ccc(Cl)cc3)c(=O)c3nc4c(nc32)CCCC4)c1 [Example 16, 3-{[3-(4-chlorobenzyl)-2,4-dioxo-3,4,6,7,8,9-hexahydrobenzo[g]pteridin-1(2H)-yl]methyl}benzonitrile]",1000

# More lines, now with the values ahead:
row,EC50 [nM],Molecule
1,1600,"C=CCn1c(=O)n(Cc2ccc(Cl)cc2)c(=O)c2nc3c(nc21)CCCC3 [Example 14, 1-allyl-3-(4-chlorobenzyl)-6,7,8,9-tetrahydrobenzo[g]pteridine-2,4(1H,3H)-dione]"
2,2200,"6-tert-butyl-3-(4-chlorobenzyl)-1-propylpteridine-2,4(1H,3H)-dione and 7-tert-butyl-3-(4-chlorobenzyl)-1-propylpteridine-2,4(1H,3H)-dione [Example 23]"
3,1400,"CCCn1c(=O)n(Cc2ccc(Cl)cc2)c(=O)c2nc3c(nc21)C(C)CC3C (mixture of isomers) [Example 12, 3-(4-chlorobenzyl)-6,8-dimethyl-1-propyl-7,8-dihydro-1H-cyclopenta[g]pteridine-2,4(3H,6H)-dione]"
4,500,"CC(C)(C)C(=O)Cn1c(=O)n(Cc2ccc(Cl)cc2)c(=O)c2nc3c(nc21)CCCC3 [Example 18, 3-(4-chlorobenzyl)-1-(3,3-dimethyl-2-oxobutyl)-6,7,8,9-tetrahydrobenzo[g]pteridine-2,4(1H,3H)-dione]"
5,1300,"O=c1c2nc3c(nc2n(CC(O)C(F)(F)F)c(=O)n1Cc1ccc(Cl)cc1)CCCC3 (centres unmarked) [Example 19, 3-(4-chlorobenzyl)-1-(3,3,3-trifluoro-2-hydroxypropyl)-6,7,8,9-tetrahydrobenzo[g]pteridine-2,4(1H,3H)-dione]"
